From PubChem BioAssay (NCI)
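Five compound concentrations were applied to cells in 96-well plates for 48 hours; endpoints were derived by simple linear interpolation of the resulting dose-response curve. TGI is the concentration that stops growth completely.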

Experiments:
Experiment in all cases: NCI tumour cell line growth inhibition, 48 h
[1] = tested on: A549 NSCLC
[2] = tested on: SK-OV-3 ovarian
[3] = tested on: UO-31 renal
[4] = tested on: HOP-62 NSCLC
[5] = tested on: COLO 205 colon
[6] = tested on: M14 melanoma
[7] = tested on: HCT-116 colon
[8] = tested on: CAKI-1 renal
[9] = tested on: HCC-2998 colon
[10] = tested on: 786-0 renal
[11] = tested on: MCF7 breast
[12] = tested on: MALME-3M melanoma
[13] = tested on: EKVX NSCLC
[14] = tested on: UACC-62 melanoma
[15] = tested on: SF-268 CNS
[16] = tested on: NCI-H23 lung
[17] = tested on: SF-295 CNS
[18] = tested on: RXF 393 renal
[19] = tested on: SF-539 CNS
[20] = tested on: BT-549 breast
[21] = tested on: OVCAR-3 ovarian
[22] = tested on: SK-MEL-5 melanoma
[23] = tested on: NCI/ADR-RES ovarian
[24] = tested on: OVCAR-5 ovarian
[25] = tested on: SNB-19 CNS
[26] = tested on: UACC-257 melanoma
[27] = tested on: ACHN renal
[28] = tested on: DU-145 prostate
[29] = tested on: PC-3 prostate
[30] = tested on: LOX IMVI melanoma
[31] = tested on: KM12 colon
[32] = tested on: NCI-H460 lung
[33] = tested on: MDA-N
[34] = tested on: HCT-15 colon
[35] = tested on: NCI-H226 lung
[36] = tested on: IGROV1 ovarian
[37] = tested on: TK-10 renal
[38] = tested on: NCI-H522 lung
[39] = tested on: MDA-MB-231 breast
[40] = tested on: RPMI-8226 leukemia
[41] = tested on: T-47D breast
[42] = tested on: OVCAR-8 ovarian
[43] = tested on: SN12C renal
[44] = tested on: MOLT-4 leukemia
[45] = tested on: CCRF-CEM leukemia
[46] = tested on: HT29 colon
[47] = tested on: SR leukemia
[48] = tested on: SK-MEL-28 melanoma
[49] = tested on: SW-620 colon
[50] = tested on: SNB-75 CNS
[51] = tested on: HL-60(TB) leukemia
[52] = tested on: K-562 leukemia

Which TGI [1] does the source give for Cc1cc(C)nc(NCCC(O)(P(=O)(O)O)P(=O)(O)O)n1 here?
Its TGI is over 100 µM.

And the TGI [2]?
Its TGI is over 100 µM.

And the TGI [3]?
Its TGI is over 100 µM.

And the TGI [4]?
Its TGI is over 100 µM.

And the TGI [5]?
Its TGI is over 100 µM.

What about the TGI [6] of the same compound?
Its TGI is over 100 µM.

And the TGI [7]?
The TGI was over 100 µM.

And the TGI [8]?
The TGI was over 100 µM.

What about the TGI [9] of the same compound?
The TGI was over 100 µM.

And the TGI [10]?
Its TGI is over 100 µM.

And the TGI [11]?
Its TGI is over 100 µM.

What about the TGI [12] of the same compound?
Its TGI is over 100 µM.

What about the TGI [13] of the same compound?
Its TGI is over 100 µM.

What about the TGI [14] of the same compound?
Its TGI is over 100 µM.

What about the TGI [15] of the same compound?
Its TGI is over 100 µM.

And the TGI [16]?
Its TGI is over 100 µM.

And the TGI [17]?
The TGI was over 100 µM.

What about the TGI [18] of the same compound?
The TGI was over 100 µM.

And the TGI [19]?
The TGI was over 100 µM.

And the TGI [20]?
Its TGI is over 100 µM.

And the TGI [21]?
The TGI was over 100 µM.

What about the TGI [22] of the same compound?
The TGI was over 100 µM.

And the TGI [23]?
Its TGI is over 100 µM.

What about the TGI [24] of the same compound?
Its TGI is over 100 µM.

What about the TGI [25] of the same compound?
The TGI was over 100 µM.

What about the TGI [26] of the same compound?
The TGI was over 100 µM.

What about the TGI [27] of the same compound?
Its TGI is over 100 µM.

And the TGI [28]?
Its TGI is over 100 µM.

What about the TGI [29] of the same compound?
The TGI was over 100 µM.

What about the TGI [30] of the same compound?
Its TGI is over 100 µM.

What about the TGI [31] of the same compound?
Its TGI is over 100 µM.

And the TGI [32]?
The TGI was over 100 µM.

And the TGI [33]?
The TGI was over 100 µM.

What about the TGI [34] of the same compound?
Its TGI is over 100 µM.

What about the TGI [35] of the same compound?
Its TGI is over 100 µM.

What about the TGI [36] of the same compound?
Its TGI is over 100 µM.

What about the TGI [37] of the same compound?
Its TGI is over 100 µM.

And the TGI [38]?
The TGI was over 100 µM.

What about the TGI [39] of the same compound?
Its TGI is over 100 µM.

How did the TGI [1] turn out when C1=C(c2ccccc2)O[C@H](COCc2ccccc2)C(OCc2ccccc2)[C@@H]1OCc1ccccc1 (stereo partly drawn) was run?
The TGI was over 10 µM.

What about the TGI [2] of the same compound?
Its TGI is over 10 µM.

What about the TGI [4] of the same compound?
The TGI was over 10 µM.

What about the TGI [40] of the same compound?
Its TGI is over 10 µM.

And the TGI [5]?
Its TGI is over 10 µM.

What about the TGI [6] of the same compound?
Its TGI is over 10 µM.

What about the TGI [41] of the same compound?
Its TGI is over 10 µM.

And the TGI [8]?
Its TGI is over 10 µM.

What about the TGI [42] of the same compound?
The TGI was over 10 µM.

What about the TGI [9] of the same compound?
The TGI was over 10 µM.

And the TGI [10]?
Its TGI is over 10 µM.

And the TGI [11]?
The TGI was over 10 µM.

And the TGI [12]?
The TGI was over 10 µM.

What about the TGI [13] of the same compound?
Its TGI is over 10 µM.

What about the TGI [43] of the same compound?
The TGI was over 10 µM.

And the TGI [44]?
Its TGI is over 10 µM.

And the TGI [14]?
Its TGI is over 10 µM.

And the TGI [15]?
Its TGI is over 10 µM.

And the TGI [16]?
Its TGI is over 10 µM.

And the TGI [17]?
Its TGI is over 10 µM.

And the TGI [45]?
Its TGI is over 10 µM.

What about the TGI [46] of the same compound?
Its TGI is over 10 µM.

And the TGI [18]?
The TGI was over 10 µM.

What about the TGI [47] of the same compound?
The TGI was over 10 µM.

And the TGI [22]?
Its TGI is over 10 µM.

And the TGI [48]?
The TGI was over 10 µM.

And the TGI [49]?
The TGI was over 10 µM.

What about the TGI [26] of the same compound?
The TGI was over 10 µM.

What about the TGI [28] of the same compound?
The TGI was over 10 µM.

And the TGI [29]?
Its TGI is over 10 µM.

And the TGI [50]?
The TGI was over 10 µM.

And the TGI [51]?
Its TGI is over 10 µM.

What about the TGI [31] of the same compound?
The TGI was over 10 µM.

What about the TGI [33] of the same compound?
The TGI was over 10 µM.

What about the TGI [34] of the same compound?
Its TGI is over 10 µM.

And the TGI [36]?
Its TGI is over 10 µM.

And the TGI [37]?
The TGI was over 10 µM.

What about the TGI [52] of the same compound?
The TGI was over 10 µM.

What about the TGI [39] of the same compound?
Its TGI is over 10 µM.
